Legend:
C57BL/6 male mice = assay: Conditioned avoidance response (CAR) model of psychosis; type: in vivo; conditions: vs vehicle
Description: Dosing of the compounds is by intraperitoneal (i.p.) injection or oral gavage (p.o.). Intraperitoneal injection is accomplished by restraining the animal, exposing the abdomen and inserting the needle just above the knees on the mouse's right side. Oral gavage is performed by restraining the animal in such a way that its head is tilted back and the esophagus is relatively straight. The gavage needle (20 G×1.5″, Cadence Science) is inserted into the mouth in line with the body and gently pushed along the esophagus and into the stomach. If resistance is encountered the needle is removed and reinserted.
Conditioned avoidance response (CAR) is a behavioral test to evaluate the antipsychotic effect of a test compound. It utilizes a shuttle box (Med Associates, St. Albans, Vt.) with two identical chambers separated by a retractable door. Each chamber is fitted with a metal grid floor that is capable of delivering electric shocks independently. A computer program is used to implement the testing paradigm as well as record the animal's movement between the two chambers through infrared beam sensors. The testing paradigm is as follows. A mouse is placed into one chamber. A light (conditioned stimulus, CS) comes on. Five seconds later, mild electric shocks (0.4 mA; (unconditioned stimulus, US) are delivered to the chamber where the mouse is located (as detected by infrared beams) until the mouse escapes to the adjacent chamber or until 10 sec has elapsed. The US and CS always co-terminate. With randomized inter-trial intervals averaging 15 sec, 30 such CS-US pairing trials are given to each mouse each day. For each trial, an escape response is registered if the mouse crosses to the other chamber after being shocked (i.e., during the 10-sec US period), and an avoidance response is registered if the mouse crosses to the other chamber during the first 5-sec CS only period. The animals are trained in this paradigm for 30-40 days, during which the average percentage of avoidance responses will improve to 80-90%. […] These trained animals are then used for compound testing with the same paradigm.
C57BL/6 male mice were trained in the CAR paradigm to predict and avoid the noxious stimulus (foot shock), reaching a plateau of approximately 25 avoidance responses per 30 trials each day. […] Vehicle treatment and compound treatment were given to the same animals on alternating days, and the effect of compound in reducing avoidance response was analyzed through within-subject comparison (paired t-test).
C57BL/6 male mice were trained in the CAR paradigm to predict and avoid the noxious stimulus (foot shock), reaching a plateau of approximately 25-28 avoidance responses per 30 trials (“training plateau”) each day. […] Vehicle treatment and compound treatment were given to the same animals on alternating days, and the effect of compound in reducing avoidance response was analyzed through within-subject comparison (paired t-test).

PDE10 = target: T1, PDE10 (Homo sapiens, UniProt Q9Y233); assay: PDE10 biochemical assay (two-step Thompson and Appleman method or SPA); conditions: PDE10 inhibition
T1 construct: made in house; host or cells: Sf9 insect cells (baculovirus)
T1 sequence (Q9Y233 1-779 isoform Q9Y233-1): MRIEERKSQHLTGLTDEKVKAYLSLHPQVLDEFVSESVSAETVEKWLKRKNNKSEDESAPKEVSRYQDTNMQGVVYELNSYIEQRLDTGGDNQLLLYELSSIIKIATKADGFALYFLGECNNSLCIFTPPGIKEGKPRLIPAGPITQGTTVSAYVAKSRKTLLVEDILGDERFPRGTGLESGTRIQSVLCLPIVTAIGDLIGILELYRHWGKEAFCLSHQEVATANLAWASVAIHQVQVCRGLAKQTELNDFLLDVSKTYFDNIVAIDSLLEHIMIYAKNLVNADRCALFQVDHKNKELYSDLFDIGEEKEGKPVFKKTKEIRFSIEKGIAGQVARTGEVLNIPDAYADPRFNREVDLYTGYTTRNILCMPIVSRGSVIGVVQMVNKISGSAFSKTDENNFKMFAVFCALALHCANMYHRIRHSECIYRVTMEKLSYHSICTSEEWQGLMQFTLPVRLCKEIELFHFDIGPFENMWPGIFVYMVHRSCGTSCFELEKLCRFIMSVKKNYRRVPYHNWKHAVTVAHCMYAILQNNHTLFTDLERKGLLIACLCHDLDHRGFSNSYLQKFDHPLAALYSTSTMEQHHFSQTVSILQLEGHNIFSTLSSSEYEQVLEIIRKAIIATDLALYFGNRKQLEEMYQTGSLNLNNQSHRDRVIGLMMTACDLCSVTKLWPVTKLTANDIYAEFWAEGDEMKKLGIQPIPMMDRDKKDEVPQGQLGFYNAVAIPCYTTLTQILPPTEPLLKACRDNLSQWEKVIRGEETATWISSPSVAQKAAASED
Description: In short, cAMP is spiked with (^3H)cAMP and incubated with PDE10 and various concentrations of a compound of structure (I). After the appropriate incubation time, the reaction is terminated by heating. The mixture is then subjected to treatment with snake venom phosphatase. The phosphatase hydrolyzes any AMP in the mixture, but leaves unreacted cAMP intact. Thus, by separating cAMP from the mixture and determining its concentration (by radiography), the percent of inhibition can be determined. IC50 values can be calculated by performing the experiment at several concentrations using standard graphical means. A detailed description of the actual technique used for IC50 assays as set forth in following Examples.
The phosphodiesterase (PDE) assay was performed using recombinant human PDE 1A3, 2A3, 3 catalytic region, 4 catalytic region, 5 catalytic region, 7A, 8A, 9A2, 10A1 and 11A1 enzymes expressed in a baculoviral system using Sf9 cells. PDE activity was measured using a modification of the two-step method of Thompson and Appleman described above which was adapted for 96 well plate format. […] The final assay volume was 110 μl with assay buffer (10 mM MgCl2; 40 mM Tris.HCl; pH 7.4). Reactions were initiated with enzyme and incubated with (^3H)-substrate and substance for 20 minutes at 30° C. The reaction was terminated by denaturing the enzyme (heating the reaction to 70° C. for 2 minutes). The reaction was then cooled at 4° C. for 10 minutes before the addition of snake venom (Crotalus atrox, 0.2 mg/ml) for 10 minutes at 30° C., thus allowing non-specific hydrolysis of the tritiated substrate. Separation of the remaining unhydrolysed cyclic nucleotide was achieved by a batch binding of the mixture to activated Dowex (200 μl) anion exchange resin. The anion exchange resin bound the charged nucleotides, leaving only hydrolysed (^3H) substrate in the soluble fraction. The soluble fraction (50 μl) was then added to microscint-20 (200 μl) and counted on a Top Count Plate reader. Radioactivity units were plotted against inhibitor concentration and IC50 values obtained using Graph Pad Prism software.
Alternatively, phosphodiesterase activity was measured by scintillation proximity assay (SPA) with [^3H]-cGMP as substrate. Purified PDE10 was diluted and stored in 25 mM Tris-Cl (pH 8.0)/100 mM NaCl/0.05% Tween 20/50% glycerol/3 mM DTT. Assays contained (final concentrations): 50 mM Tris-Cl (pH 7.5)/8.3 mM MgCl2/1.7 mM EGTA/0.5 mg/ml BSA/5% DMSO and 2 ng PDE10 in a final volume of 0.1 mL. Inhibition was evaluated at 8 concentrations in duplicate. Reactions were initiated by addition of enzyme and were terminated after 20 minutes at 30° C. by the addition of 50 μl of SPA beads containing Zn^++. The mixture was shaken, allowed to settle for 3 hours, and counted in a Wallac plate counter. Results (net cpm) were fitted to a four parameter logistic model using Excel Solver®.

[1] = 10 mg/kg oral gavage, 25 minutes prior to testing
[2] = 10 mg/kg oral gavage, 55 minutes prior to testing
[3] = 2 mg/kg oral gavage, 55 minutes prior to testing
[4] = 5 mg/kg oral gavage, 55 minutes prior to testing

Structure (SMILES) | reduction of number of avoidance responses (CAR) (C57BL/6 male mice; [1]) | IC50 (PDE10) | reduction of number of avoidance responses (CAR) (C57BL/6 male mice; 5 mg/kg oral gavage, 25 minutes prior to testing) | reduction of number of avoidance responses (CAR) (C57BL/6 male mice; 15 mg/kg oral gavage, 25 minutes prior to testing) | reduction of number of avoidance responses (CAR) (C57BL/6 male mice; [2]) | reduction of number of avoidance responses (CAR) (C57BL/6 male mice; [3]) | reduction of number of avoidance responses (CAR) (C57BL/6 male mice; [4])
COc1cc(-c2ccc(C(=O)C(OC)c3ccc(-c4nnc(C)s4)cc3)o2)cc(OC)c1Br (stereo not drawn) [Compound 34-1, 1-(5-(4-Bromo-3,5-Dimethoxyphenyl)Furan-2-Yl)-2-Methoxy-2-(4-(5-Methyl-1,3,4-Thiadiazol-2-Yl)Phenyl)Ethanone] | significantly reduces | ≤ 1 µM |  |  |  |  | 
COc1cc(-c2ccc(C(=O)C(OC)c3ccc(-c4nnc(C)o4)cc3)o2)cc(OC)c1OC (stereo not drawn) [Compound 36-1, 2-Methoxy-2-(4-(5-Methyl-1,3,4-Oxadiazol-2-Yl)Phenyl)-1-(5-(3,4,5-Trimethoxyphenyl)Furan-2-Yl)Ethanone] | a trend that did not reach significance | ≤ 1 µM | a trend that did not reach significance | significantly reduces |  |  | 
COc1cc(-c2ccc(C(=O)C(OC)c3ccc(-c4nnc(C)s4)cc3)o2)cc(OC)c1Cl (stereo not drawn) [Compound 49-1, 1-(5-(4-Chloro-3,5-Dimethoxyphenyl)Furan-2-Yl)-2-Methoxy-2-(4-(5-Methyl-1,3,4-Thiadiazol-2-Yl)Phenyl)Ethanone] |  | ≤ 1 µM |  |  | significantly reduces |  | 
CCOC(C(=O)c1ccc(-c2cc(OC)c(Cl)c(OC)c2)o1)c1ccc(-c2nnc(C)o2)cc1 (stereo not drawn) [Compound 63-1, 1-(5-(4-Chloro-3,5-Dimethoxyphenyl)Furan-2-Yl)-2-Ethoxy-2-(4-(5-Methyl-1,3,4-Oxadiazol-2-Yl)Phenyl)Ethanone] |  | ≤ 1 µM |  |  | significantly reduces | significantly reduces | significantly reduces
CCOC(C(=O)c1ccc(-c2cc(OC)c(Br)c(OC)c2)o1)c1ccc(-c2nnc(C)o2)cc1 (stereo not drawn) [Compound 47-1, 1-(5-(4-Bromo-3,5-Dimethoxyphenyl)Furan-2-Yl)-2-Ethoxy-2-(4-(5-Methyl-1,3,4-Oxadiazol-2-Yl)Phenyl)Ethanone] |  | ≤ 1 µM |  |  | significantly reduces | a trend that did not reach significance | significantly reduces
COc1cc(-c2ccc(C(=O)C(OC)c3ccc(-c4nnc(C)o4)cc3)o2)cc(OC)c1Cl (stereo not drawn) [Compound 61-1, 1-(5-(4-Chloro-3,5-Dimethoxyphenyl)Furan-2-Yl)-2-Methoxy-2-(4-(5-Methyl-1,3,4-Oxadiazol-2-Yl)Phenyl)Ethanone] |  | ≤ 1 µM |  |  | significantly reduces | significantly reduces | significantly reduces
CCOC(C(=O)c1ccc(-c2cc(OC)c(Cl)c(OC)c2)o1)c1ccc(-c2nnc(C)s2)cc1 (stereo not drawn) [Compound 65-10] |  | ≤ 1 µM |  |  | significantly reduces |  | significantly reduces
COc1ccc(-c2ccn(C(=O)C(OC)c3ccc(F)cc3)n2)cc1OC (stereo not drawn) [Compound 51-1, 1-(3-(3,4-Dimethoxyphenyl)-1H-Pyrazol-1-Yl)-2-(4-Fluorophenyl)-2-Methoxyethanone] |  | ≤ 1 µM |  |  |  |  | 
